Results from US8846411B2, “Derivatives, reagents, and immunoassay for detecting levetiracetam” (Microgenics Corporation, priority 2009, dated 2014).

Legend:
[1] = cited from earlier work
[2] = system: anti-levetiracetam antibody prepared with immunogen 18a; test: Antibody avidity by ELISA binding inhibition study with levetiracetam; conditions: Sheep No. 5479 antibody
Procedure: The avidity of the anti-levetiracetam antibody prepared with immunogen 18a for various levetiracetam derivatives were determined by a binding inhibition study. Samples were prepared in 1 mL of PBS at pH 7.4 with 0.1% BSA. A composition having 30% Bmax titer or 50% Bmax titer was used to divide the titer value as obtained in Example 38 into approximately half the titer value. Using 30% Bmax, an antibody titer of 1:10000 was diluted to […] during the sample preparation stage. About 50 μL of levetiracetam at different concentrations or calibrator values, (0, 5, 10, 20, 40, 80 μg/ml) were applied to a plate as prepared in accordance with Example 38. About 50 μL of the diluted antibody was dispensed into the plate, and the compositions in the plate were mixed for 1 min on a horizontal plate shaker. No levetiracetam or anti-levetiracetam antibody was added to the first row of the plate, which served as a negative control. A second row with anti-levetiracetam antibody but without levetiracetam was used as the positive control. The plate was incubated for 60 min and washed three times with 250 μL of PBS at pH 7.4 with 0.05% Tween 20. About 125 μL of a diluted derivative such as 18b or 19 in PBS at pH 7.4 was added to each well of the plate. The plate was incubated for 60 min at 37° C. and washed as described above. Approximately 125 μL of ABTS substrate was added to each well of the plate and incubated for 20 min.

B/Bo ([2]; Levetiracetam 5 μg/mL, Antigen 18b)	B/Bo ([2]; Levetiracetam 5 μg/mL, Antigen 19)	B/Bo ([2]; Levetiracetam 10 μg/mL, Antigen 18b)	B/Bo ([2]; Levetiracetam 10 μg/mL, Antigen 19)	B/Bo ([2]; Levetiracetam 20 μg/mL, Antigen 18b)	B/Bo ([2]; Levetiracetam 20 μg/mL, Antigen 19)	B/Bo ([2]; Levetiracetam 40 μg/mL, Antigen 18b)	B/Bo ([2]; Levetiracetam 40 μg/mL, Antigen 19)	B/Bo ([2]; Levetiracetam 80 μg/mL, Antigen 18b)	B/Bo ([2]; Levetiracetam 80 μg/mL, Antigen 19)	Compound	share of the administered dose accounted for by metabolite excreted in urine ([1]; urine, after administration of LEV)	nominal therapeutic range ([1]; in vivo) [µg/mL]	optimal trough serum/plasma concentration range ([1]; trough, serum/plasma) [mg/L]	given dose excreted unchanged in urine ([1]; urine, elimination via the kidney)
–	–	–	–	–	–	–	–	–	–	O=C(O)CCCN1CCCC1=O [2-pyrrolidone-N-butyric acid]	approximately 27%	–	–	–
0.96	0.98	0.98	0.91	0.90	0.86	0.88	0.78	0.87	0.77	CC[C@@H](C(N)=O)N1CCCC1=O [Levetiracetam, (−)-(S)-α-ethyl-2-oxo-1-pyrrolidine acetamide]	–	6 to 20	10 to 60	approximately 64%
